Source: the Deep4Chem optical property database
Blank lines part the entries; values can stand above or below the molecule they belong to.

Assay: photoluminescence quantum yield (fraction); solvent given as SMILES
[1] = in c1cc(-c2cccc(-n3c4ccccc4c4ccccc43)c2)cc(-n2c3ccccc3c3ccccc32)c1

photoluminescence quantum yield (in CN(C)C=O): 0.95
Compound: COCCC1(CCOC)c2cc(-c3ccc(OC)cc3)ccc2-c2ccc(-c3ccc4c(c3)C(CCOC)(CCOC)c3cc(-c5ccc(OC)cc5)ccc3-4)cc21

photoluminescence quantum yield (in ClCCl): 0.29
Compound: C[Si]1(C)O[Si](C)(C)c2cc3nc4ccc(Cl)cc4c(-c4ccccc4)c3cc2[Si](C)(C)O1

photoluminescence quantum yield (in ClCCl): 0.29
Compound: O=c1oc2ccccc2c2c1c(=O)oc1c3ccccc3cc(O)c12

photoluminescence quantum yield (in CCCCCC): 0.47
Compound: CC(C)[Si](C#Cc1c2ccccc2c(C#C[Si](C(C)C)(C(C)C)C(C)C)c2nc3c(nc12)Cc1ccccc1-3)(C(C)C)C(C)C

Compound: CC1=CC(C)=[N+]2C1=C(c1ccccc1)c1c(C)cc(/C=C/c3ccc(N(C)C)cc3)n1[B-]2(F)F
photoluminescence quantum yield (in CCOCC): 0.83

photoluminescence quantum yield (in CC#N): 0.28
Compound: COc1ccc(/C=C/c2ccc(-c3ccc(C)cn3)nc2)cc1

photoluminescence quantum yield (in C1CCOC1): 0.31
Compound: F[B-]1(F)n2c(-c3ccccc3)cc(-c3ccccc3)c2C(c2ccccc2)=C2C(c3ccccc3)=CC(c3ccccc3)=[N+]21

photoluminescence quantum yield (in ClCCl): 0.52
Compound: COc1ccc(C#Cc2ccc3nc4ccc(C#Cc5ccc(OC)cc5)cn4c(=O)c3c2)cc1

photoluminescence quantum yield (in ClCCl): 0.1
Compound: c1ccc([B-]23NC(C4CCCCC4)=Nc4cccc([n+]42)N=C(C2CCCCC2)N3)cc1

photoluminescence quantum yield (in CO): 0.24 | photoluminescence quantum yield (in CS(C)=O): 0.15 | photoluminescence quantum yield (in O): 0.07
Compound: CCCN1/C(=C/C=C(/C=C/C2=[N+](CCC)c3ccccc3C2(C)C)c2ccncc2)C(C)(C)c2ccccc21

photoluminescence quantum yield (in ClCCl): 0.97
Compound: c1ccc(-c2c3ccccc3c(-c3ccccc3)c3cc4ccccc4cc23)cc1

photoluminescence quantum yield (in CCO): 0.64 | photoluminescence quantum yield (in ClC(Cl)Cl): 0.36
Compound: CCOc1ccc2c(-c3nc(-c4ccccc4F)no3)cc(=O)oc2c1

Compound: O=c1c2ccc(-c3ccc(N(c4ccccc4)c4ccccc4)cc3)cc2sc2cccc(-c3ccc(N(c4ccccc4)c4ccccc4)cc3)c12
photoluminescence quantum yield (in c1ccc2c(c1)c1ccccc1n2-c1ccc(-c2ccc(-n3c4ccccc4c4ccccc43)cc2)cc1): 0.025

photoluminescence quantum yield (in C1CCOC1): 0.83
Compound: COc1ccc(-c2cnc3nn4ccccc4c3n2)cc1

photoluminescence quantum yield [1]: 0.52
Compound: O=c1oc2ccccc2c2cc(N3c4ccccc4Oc4ccccc43)ccc12

Compound: F[B-]1(F)Oc2ccccc2-c2cc(-n3c4ccccc4c4ccccc43)cc[n+]21
photoluminescence quantum yield (in O=P(c1ccccc1)(c1ccccc1)c1ccccc1Oc1ccccc1P(=O)(c1ccccc1)c1ccccc1): 0.99

photoluminescence quantum yield (in O): 0.2
Compound: Clc1ccc2cc3cccc[n+]3cc2c1

photoluminescence quantum yield (in CCO): 0.11
Compound: CN1c2cc3nc4cc(Br)c(Br)cc4nc3cc2N(C)C1(C)C

photoluminescence quantum yield (in ClC(Cl)Cl): 0.03
Compound: CCOC(=O)/C=C/C1=C(c2ccc(C)cc2)C2=Nc3c(-c4ccc(C)cc4)c(Br)c(-c4ccc(C)cc4)n3[B-](F)(F)[N+]2=C1c1ccc(C)cc1

photoluminescence quantum yield (in ClCCl): 0.28
Compound: COc1ccc(C2=C(c3ccc(OC)cc3)c3cccc4c5c(cc(c34)O2)=NC2C=C(Br)C(Br)=CC2N=5)cc1 (stereo not drawn)

Compound: N#Cc1c(-n2c3ccccc3c3ccccc32)c(-n2c3ccc(-c4ccccc4)cc3c3cc(-c4ccccc4)ccc32)c(-n2c3ccccc3c3ccccc32)c(-n2c3ccc(-c4ccccc4)cc3c3cc(-c4ccccc4)ccc32)c1-n1c2ccccc2c2ccccc21
photoluminescence quantum yield (in Cc1ccccc1): 0.81 | photoluminescence quantum yield [1]: 0.8

photoluminescence quantum yield (in ClCCl): 0.15
Compound: Cn1cc(-c2nc3ccccc3nc2C#Cc2ccc(C#N)cc2)c2ccccc21

photoluminescence quantum yield (in C1CCOC1): 0.529
Compound: CCCCCOc1ccc2c(c1)c1ccc3cccc4c5cccc6oc(=O)c2c(c65)c1c34

photoluminescence quantum yield (in CC#N): 0.11
Compound: COc1ccccc1-c1nc2c([nH]1)C1=CC(=O)S[C@]1(C)[C@@]1(C)SC(=O)C=C21

Compound: CC(C)(C)c1ccc2c(c1)sc1[n+]2[B-](F)(F)n2c(c3cccc4c(Br)ccc2c43)=N1
photoluminescence quantum yield (in C1CCOC1): 0.63 | photoluminescence quantum yield (in CC#N): 0.64 | photoluminescence quantum yield (in CCCCCC): 0.68 | photoluminescence quantum yield (in Cc1ccccc1): 0.64 | photoluminescence quantum yield (in ClCCl): 0.72

Compound: CC1=CC(c2ccc(N(C)C)cc2)=[N+]2C1=Nc1c(C)cc(-c3ccc(N(C)C)cc3)n1[B-]2(F)F
photoluminescence quantum yield (in C1CCOC1): 0.13 | photoluminescence quantum yield (in CS(C)=O): 0.01 | photoluminescence quantum yield (in Cc1ccccc1): 0.21

Compound: COc1c2ccccc2c(OC)c2c(C#CC(C)(C)C)c3cc4sccc4cc3c(C#CC(C)(C)C)c12
photoluminescence quantum yield (in C1CCOC1): 0.1 | photoluminescence quantum yield (in Cc1ccccc1): 0.14 | photoluminescence quantum yield (in ClCCl): 0.08

photoluminescence quantum yield (in c1ccccc1): 0.152
Compound: CN(C)c1ccc2ccc3oc(=O)c(-c4ccccc4)nc3c2c1

photoluminescence quantum yield (in ClCCl): 0.019
Compound: Cc1cc(=O)cc(-c2ccc(-c3nc4ccccn4c3NC3CCCCC3)cc2)o1

photoluminescence quantum yield (in CC#N): 0.856
Compound: COc1ccc(-n2nc(C#N)c(N3CCOCC3)n2)cc1

photoluminescence quantum yield (in ClCCl): 0.15
Compound: CCCCCCC1(CCCCCC)c2cc(-c3ccc(-c4ccc(-c5ccc(-c6ccc7c(c6)C(CCCCCC)(CCCCCC)c6cc(-n8c9ccc(-n%10c%11ccccc%11c%11ccccc%11%10)cc9c9cc(-n%10c%11ccccc%11c%11ccccc%11%10)ccc98)ccc6-7)s5)c5nsnc45)s3)ccc2-c2ccc(-n3c4ccc(-n5c6ccccc6c6ccccc65)cc4c4cc(-n5c6ccccc6c6ccccc65)ccc43)cc21

photoluminescence quantum yield (in CCO): 0.49
Compound: CCOC(=O)c1cc(C(=O)OCC)c2cc(N(CC)CC)ccc2n1

photoluminescence quantum yield (in CS(C)=O): 0.52
Compound: COc1cc2sc3nc(-c4ccccc4)sc3c2cc1OC

photoluminescence quantum yield (in O): 0.001
Compound: O=C(O)c1ccccc1

Compound: COc1ccc(-c2nc(C)cc(-c3ccc(-n4c5ccccc5c5ccccc54)cc3)n2)cc1
photoluminescence quantum yield (in C1CCOC1): 0.47 | photoluminescence quantum yield (in CN(C)C=O): 0.68 | photoluminescence quantum yield (in Cc1ccccc1): 0.46 | photoluminescence quantum yield (in ClC(Cl)Cl): 0.65

photoluminescence quantum yield (in ClCCl): 0.18
Compound: c1ccc(-c2ccc(-c3cc(-c4ccccn4)nc(-c4ccccn4)c3)cc2)cc1

photoluminescence quantum yield (in CC#N): 0.16 | photoluminescence quantum yield (in CO): 0.2 | photoluminescence quantum yield (in ClCCl): 0.16
Compound: CCCn1c2cccc3c2[c+]2c4c1cccc4n(CCC)c1cccc(c12)n3CCC

Compound: COc1ccc(C2=C(c3ccc([N+](=O)[O-])cc3)C(c3ccccc3)=[N+]3C2=Nc2c(-c4ccc(OC)cc4)c(-c4ccc([N+](=O)[O-])cc4)c(-c4ccccc4)n2[B-]3(F)F)cc1
photoluminescence quantum yield (in Cc1ccccc1): 0.05

photoluminescence quantum yield (in ClCCl): 0.28
Compound: Cc1cc(C)c(-c2cc(-c3c(C)cc(C)cc3C)c3ccc4c(-c5c(C)cc(C)cc5C)cc(-c5c(C)cc(C)cc5C)c5ccc2c3c54)c(C)c1

photoluminescence quantum yield (in ClCCl): 0.06
Compound: CC[C@H](C)COc1ccc(C2=C3C(C)=C(I)C(C)=[N+]3[B-](F)(F)n3c(C)c(I)c(C)c32)cc1

photoluminescence quantum yield (in ClCCl): 0.37
Compound: N#Cc1cc(-c2ccc(/C=C/c3ccc(N(c4ccccc4)c4ccccc4)cc3)c(C#N)c2)ccc1/C=C/c1ccc(N(c2ccccc2)c2ccccc2)cc1

photoluminescence quantum yield (in CCCCCC): 0.7
Compound: CC(C)[Si](C#Cc1c2ccccc2c(C#C[Si](C(C)C)(C(C)C)C(C)C)c2nc3c(nc12)C1c2ccccc2C3c2ccccc21)(C(C)C)C(C)C

photoluminescence quantum yield (in ClCCl): 0.0041
Compound: CC1=C(c2ccc(N(C)C)cc2)C(C)=[N+]2C1=C(c1c(-c3ccccn3)nc3ccccn13)c1c(C)cc(C)n1[B-]2(F)F

photoluminescence quantum yield (in CC#N): 0.37 | photoluminescence quantum yield (in CCOC(C)=O): 0.22 | photoluminescence quantum yield (in CO): 0.06
Compound: COC(=O)C[C@H](Cc1c[nH]c2ccccc12)NC(=O)[C@H](CC(=O)N[C@@H](CC1=CCc2ccccc21)C(=O)OC)NC(=O)OC(C)(C)C

photoluminescence quantum yield (in ClCCl): 0.26
Compound: CCN(CC)c1ccc2n1[B-](F)(F)[N+]1=CC(/C=C/C(=O)OC(C)(C)C)=CC1=C2c1c(C)cc(C)cc1C

photoluminescence quantum yield (in ClC(Cl)Cl): 0.42
Compound: COc1ccc(C2=[N+]3C(=C(c4ccc(I)cc4)c4ccc(-c5ccc(OC)cc5)n4[B-]3(F)F)C=C2)cc1

photoluminescence quantum yield (in CC1CCCCC1): 0.64
Compound: CC(C)(C)c1cc2c3cc(C(C)(C)C)c(-c4cc5cc6c7cccc8cccc(c9cc(C(C)(C)C)cc(c5cc4C(C)(C)C)c96)c87)cc3cc3c4cccc5cccc(c(c1)c23)c54

Compound: CCCOc1ccc(/C=C/C=C/C=C/c2ccc([N+](=O)[O-])cc2)cc1
photoluminescence quantum yield (in CC1CCCCC1): 0.25 | photoluminescence quantum yield (in CC#N): 0.011 | photoluminescence quantum yield (in Cc1ccccc1): 0.54 | photoluminescence quantum yield (in ClCCl): 0.06

photoluminescence quantum yield (in C1COCCO1): 0.87
Compound: CCC12C(=C3C(=C4c5ccc(-c6ccc(C(C)=O)cc6)cc5S(=O)(=O)C41CC)C(F)(F)C(F)(F)C3(F)F)c1ccc(-c3ccc(C(C)=O)cc3)cc1S2(=O)=O (stereo not drawn)

Compound: Cc1ccccc1/C(C#N)=C/c1ccc(N(C)C)cc1
photoluminescence quantum yield (in C1CCOC1): 0.011 | photoluminescence quantum yield (in C1COCCO1): 0.01 | photoluminescence quantum yield (in CC#N): 0.014 | photoluminescence quantum yield (in CCCCCC): 0.012 | photoluminescence quantum yield (in CCCCCCC): 0.008 | photoluminescence quantum yield (in CCCCCO): 0.01 | photoluminescence quantum yield (in CCCCO): 0.006 | photoluminescence quantum yield (in CCCO): 0.008 | photoluminescence quantum yield (in CCO): 0.006 | photoluminescence quantum yield (in CCOC(C)=O): 0.007 | photoluminescence quantum yield (in CN(C)C=O): 0.015 | photoluminescence quantum yield (in CO): 0.005 | photoluminescence quantum yield (in CS(C)=O): 0.011 | photoluminescence quantum yield (in Cc1ccccc1): 0.021 | photoluminescence quantum yield (in ClC(Cl)Cl): 0.009

Compound: Cc1ccc(C2=C3C=CC(C#Cc4ccccc4)=[N+]3[B-](F)(F)n3c(C#Cc4ccccc4)ccc32)cc1
photoluminescence quantum yield (in C1CCCCC1): 1 | photoluminescence quantum yield (in C1CCOC1): 0.99 | photoluminescence quantum yield (in C1COCCO1): 1 | photoluminescence quantum yield (in CCOC(C)=O): 1 | photoluminescence quantum yield (in CO): 1 | photoluminescence quantum yield (in Cc1ccccc1): 1 | photoluminescence quantum yield (in ClC(Cl)Cl): 1 | photoluminescence quantum yield (in ClCCl): 1

Compound: N#C/C(=C\c1ccncc1)c1nc(-c2ccccc2)cs1
photoluminescence quantum yield (in CC#N): 0.263 | photoluminescence quantum yield (in CCO): 0.6 | photoluminescence quantum yield (in CN(C)C=O): 0.406 | photoluminescence quantum yield (in CS(C)=O): 0.124 | photoluminescence quantum yield (in Cc1ccccc1): 0.346 | photoluminescence quantum yield (in ClCCl): 0.086

photoluminescence quantum yield (in ClC(Cl)Cl): 0.1
Compound: COc1ccc2c(C#N)cc3ccc4cc(C#N)c5ccc(OC)cc5c4c3c2c1

photoluminescence quantum yield (in C1CCOC1): 0.015 | photoluminescence quantum yield (in CC#N): 0.017 | photoluminescence quantum yield (in CCO): 0.0091 | photoluminescence quantum yield (in CN(C)C=O): 0.0047 | photoluminescence quantum yield (in CO): 0.0077 | photoluminescence quantum yield (in CS(C)=O): 0.0048
Compound: CSc1sc(C(C)=O)c2nn[nH]c(=O)c12

photoluminescence quantum yield (in C1COCCO1): 0.4 | photoluminescence quantum yield (in CC#N): 0.32 | photoluminescence quantum yield (in CCCCOCCCC): 0.37 | photoluminescence quantum yield (in CCOC(C)=O): 0.33
Compound: COc1nc(Cl)nc(Nc2ccc3c4cccc5cccc(c6cccc2c63)c54)n1

photoluminescence quantum yield (in ClCCl): 0.45
Compound: CCCc1ccc(C#Cc2ccc3nc4ccc(C#Cc5ccc(CCC)cc5)cn4c(=O)c3c2)cc1

photoluminescence quantum yield (in CCO): 0.15
Compound: CCOC(=O)c1cc(C(=O)O)nc2cc(OC)ccc12
